The record followed here is ChEMBL document CHEMBL1201862, “PubChem BioAssay data set” (2004).

Active and inactive are the calls of the source.

The nature of assay [1]: growth inhibition of replicating M. tuberculosis, dose response, counter-screen, dry powder, IC90 (AID 651617). Format: functional. Conditions: Mycobacterium tuberculosis. Background: The purpose of a counterscreen is to sort out artefacts and off-target activity.
Assay [2] in a line: inhibitors of non-replicating M. tuberculosis, dose response, luciferase, dry powder (AID 651620). Format: functional. The note with it: Mycobacterium tuberculosis.
The nature of assay [3]: inhibitors of non-replicating M. tuberculosis, dose response, luciferase, dry powder (AID 651619). Conditions: Mycobacterium tuberculosis. It is filed as functional.
The nature of assay [4]: melanocyte viability loss, MITF-dependent cells, cell-based, plate reader, dry powder, cytotoxicity control, dose response (AID 651920). Format: functional.
A short description of assay [5]: MITF Measured in Cell-Based System Using Plate Reader - 2084-01_Inhibitor_Dose_DryPowder_Activity_Set7. It is filed as functional.
Assay [6] is described as follows: MITF Orthogonal Assay: MALME3 CTG Assay Measured in Cell-Based System Using Plate Reader - 2084-04_Inhibitor_Dose_DryPowder_Activity_Set6. It is filed as functional. The note with it: MALME-3.
A short description of assay [7]: cytotoxicity in melanoma parental cells – cell-based, CellTiter-Glo, dry powder, set 6, MITF inhibitor project, dose response (AID 624429). It is filed as functional. Conditions: SK-MEL-5.
A short description of assay [8]: inhibitors of TRPM1-promoter reporter in SK-MEL-5 – cell-based, luciferase, dry powder, set 9, MITF inhibitor project, dose response (AID 651588). Format: functional.
Assay [9] can be described thus: cytotoxicity in MITF-independent A375 cells – cell-based, CellTiter-Glo luminescence, dry powder, set 9, counter-screen for MITF modulator project, dose response (AID 651591). It is filed as functional. The note with it: A-375. For orientation: In ATP-based viability assays light output follows the ATP content of the culture.
Assay [10] is described as follows: growth inhibition of MALME3 cells – cell-based, CellTiter-Glo luminescence, dry powder, set 5, orthogonal assay for MITF inhibitor project, dose response (AID 651584). Format: functional. The note with it: MALME-3.
Assay [11] is described as follows: growth inhibition of SK-MEL-5 melanoma cells – cell-based, CellTiter-Glo luminescence, dry powder, set 8, orthogonal assay for MITF inhibitor project, dose response (AID 651586). Format: functional.
Assay [12] in a line: cytotoxicity in MITF-independent A375 cells – cell-based, CellTiter-Glo luminescence, dry powder, set 4, counter-screen for MITF inhibitor project, dose response (AID 624364).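 Further: A375 melanoma cells are MITF independent so this is a counter screen.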 Format: functional. Conditions: A-375.
Assay [13] is described as follows: MITF Orthogonal Assay: SK-MEL-5 CTG Assay Measured in Cell-Based System Using Plate Reader - 2084-02_Inhibitor_Dose_DryPowder_Activity_Set5. It is filed as functional.
Assay [14] can be described thus: viability loss in MITF-independent A375 cells – cell-based, CellTiter-Glo luminescence, dry powder, set 6, counter-screen for MITF inhibitor project, dose response (AID 624488). It is filed as functional. The note with it: A-375.
Assay [15] is described as follows: viability loss in MITF-independent A375 cells – cell-based, CellTiter-Glo luminescence, dry powder, set 7, counter-screen for MITF inhibitor project, dose response (AID 624490). Format: functional. Conditions: A-375.
Assay [16] can be described thus: MITF Measured in Cell-Based System Using Plate Reader - 2084-01_Inhibitor_Dose_DryPowder_Activity_Set6. Format: functional.
Assay [17] is described as follows: growth inhibition of PfATP4-mutant resistant parasites – NITD609-resistant line, SYBR Green, dry powder, dose response (AID 1159571).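 Further: parasites synchronized at ring stage by sorbitol before testing.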 It is filed as functional, cell-based.
Assay [18] is described as follows: Dd2 parasite growth inhibition in erythrocytes – SYBR Green, dry powder samples, set 9, dose response (AID 1159568). Format: functional, cell-based.
The nature of assay [19]: Dd2 malaria parasite growth inhibition potency – SYBR Green, dry powder samples, dose response (AID 1159566).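 Further: potency for growth inhibition with lower SYBR green DNA signal.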 Format: functional, cell-based.
Assay [20] is described as follows: P. falciparum Dd2 growth inhibitors, dose response, SYBR Green, cherry-picked samples (AID 1159567). Format: functional, cell-based.
Assay [21] can be described thus: growth inhibition of yeast DHODH-expressing 3D7 parasites – SYBR Green, dry powder samples, dose response (AID 1159570).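 Further: parasite growth measured after 72 hours of compound exposure.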 It is filed as functional, cell-based.
Assay [22] in a line: T. cruzi growth inhibition in host cells, dose response, cell-based, plate reader, dry powder, set 2 (AID 652275). Format: functional.
Assay [23] concerns the target T1, Low molecular weight phosphotyrosine protein phosphatase (Homo sapiens, UniProt P24666).
T1 sequence (P24666 whole entry): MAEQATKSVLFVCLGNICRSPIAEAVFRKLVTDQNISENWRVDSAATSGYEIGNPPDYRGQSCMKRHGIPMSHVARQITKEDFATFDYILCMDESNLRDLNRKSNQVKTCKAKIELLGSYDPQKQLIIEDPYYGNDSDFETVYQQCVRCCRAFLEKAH
Description: inhibition of human LMPTP enzyme activity – biochemical, absorbance, pNPP substrate, LMPTP-A isoform, set 2, orthogonal assay, dose response (AID 743308). It is filed as functional.

In assay [24] the target is T1, Low molecular weight phosphotyrosine protein phosphatase. Description: inhibition of LMPTP-A enzymatic activity – biochemical, OMFP substrate, fluorescence intensity, set 2, dose response (AID 743307). Format: functional.
A short description of assay [25]: OV-90 cell viability loss – plate reader, dry powder, SA8, PAX8 inhibitor project, dose response (AID 743149). Format: functional, cell-based.
A short description of assay [26]: PAX8-dependent cell viability loss – plate reader, dry powder, dose response (AID 743049). Format: functional, cell-based.
Assay [27] can be described thus: COV434 cell viability loss – plate reader, dry powder, SA7, cytotoxicity control for PAX8 inhibitor project, dose response (AID 743145). Format: functional, cell-based.
Assay [28] is described as follows: OVCAR-3 cell viability loss – plate reader, dry powder samples, PAX8 inhibitor project, dose response (AID 743044). It is filed as functional, cell-based.
The target in assay [29] is Paired box protein Pax-8 (Homo sapiens, UniProt Q06710). Description: PAX8 transcriptional activity inhibition in RMG-I – RMG-I cells, luciferase, cherry-pick, dose response (AID 687027).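 Further: luciferase reporter driven by Pax8 target thyroperoxidase promoter measured by SteadyGlo luminescence.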 Format: functional, cell-based.
Assay [30] can be described thus: COV362 cell viability loss – plate reader, dry powder, SA12, cytotoxicity control for PAX8 inhibitor project, dose response (AID 743144). Format: functional, cell-based.
Assay [31] in a line: PAX5 cellular inhibition readout – cell-based, plate reader, dry powder samples, selectivity assay for PAX8 inhibitor project, dose response (AID 743047).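 Further: HEK293 cells carrying a Pax5 driven CD19 promoter luciferase reporter; potency of inhibitors that lower reporter luminescence.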 It is filed as functional.
The nature of assay [32]: OVCAR8 cell viability loss – plate reader, dry powder samples, PAX8 project, dose response (AID 743197). Conditions: OVCAR-8. Format: functional, cell-based.
Assay [33] can be described thus: inhibitors acting on PAX2 in cells – cell-based, plate reader, dry powder samples, selectivity assay for PAX8 inhibitor project, dose response (AID 743048).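 Further: HEK293 cells carrying a WT1 promoter luciferase reporter driven by expressed Pax2; potency is for inhibition of Pax2 driven reporter signal.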 It is filed as functional.
Assay [34] is described as follows: rise of 2N DNA cells, HeLa – IC50, dose response (AID 1117349). It is filed as functional, cell-based.
Assay [35] in a line: rise of 4N DNA cells, HeLa – IC50, dose response (AID 1117351). It is filed as functional, cell-based.
The nature of assay [36]: cells. It is filed as functional, cell-based. The note with it: INS-1E.
Assay [37] is described as follows: IC50 of insulin release inhibition, rat insulinoma INS-1E line, 5 mM glucose, cell-based (AID 1117331). It is filed as functional.
In assay [38] the target is Protein Tat (Human immunodeficiency virus type 1 group M subtype B (isolate HXB2)(HIV-1), UniProt P04608). Format: functional.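 Further: tat binding to TAR RNA read out by fluorescence polarization.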

A word on the IC90: it is the concentration at which the effect reaches the 90% level. A word on the AC50: it is the concentration at which the activity in the assay is half-maximal. As usually defined, the IC50 is the point on the concentration scale where inhibition reaches its midpoint.

Sequence of Protein Tat (P04608 whole entry): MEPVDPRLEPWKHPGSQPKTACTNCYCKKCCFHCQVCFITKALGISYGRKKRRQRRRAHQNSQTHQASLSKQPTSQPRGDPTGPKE
Sequence of Paired box protein Pax-8 (Q06710 whole entry): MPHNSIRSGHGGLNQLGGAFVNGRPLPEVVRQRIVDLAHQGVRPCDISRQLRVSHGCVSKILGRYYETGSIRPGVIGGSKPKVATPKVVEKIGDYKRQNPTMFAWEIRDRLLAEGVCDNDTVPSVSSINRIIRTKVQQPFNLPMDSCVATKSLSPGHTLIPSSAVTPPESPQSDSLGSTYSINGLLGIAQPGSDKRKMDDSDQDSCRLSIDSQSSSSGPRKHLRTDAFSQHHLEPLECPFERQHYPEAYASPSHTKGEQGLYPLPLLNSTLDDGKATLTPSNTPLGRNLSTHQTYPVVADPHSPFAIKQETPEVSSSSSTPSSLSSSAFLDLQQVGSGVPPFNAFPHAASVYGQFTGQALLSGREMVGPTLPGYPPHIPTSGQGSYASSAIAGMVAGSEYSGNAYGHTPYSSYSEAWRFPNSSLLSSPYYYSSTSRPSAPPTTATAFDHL

As to `Fc1ccc(Cn2cc(CSc3nnc(C4CCCC4)o3)nn2)cc1`, the values for the IC90 in assay [1], in assay [2] and in assay [3] were 250 µM (active), 2 µM (active) and 2 µM (active), respectively.

For `COC1=C(NS(=O)(=O)c2ccc(Br)cc2)C(=O)c2ccccc2C1=O`, the AC50 is > 70 µM (inactive) in [4]; 10.4 µM (active) in assay [5]; 34.9 µM (active) in assay [6]; 21.5 µM (active) in assay [7]; 38.3 µM (active) in [8]; > 70 µM (inactive) in assay [9]. The AC50 was 34.9 µM (active) in assay [10]; 19.8 µM (active) in assay [11]; > 70 µM (inactive) in assay [12]; 12 µM (active) in assay [13]; > 70 µM (inactive) in assay [14]; > 70 µM (inactive) in assay [15]. Besides, the AC50 in assay [16] was 14.8 µM (active).

With `CC(C)(C)[S+]([O-])N1Cc2cc(C(=O)NCc3ccc4c(c3)OCO4)nc(-c3cccc(-c4cc5ccccc5o4)c3)c2[C@H]1CCO` (stereo partly drawn), the AC50 was 1.21 µM (active) in assay [17]; 2.2 µM (active) in [18]; 1.16 µM (active) in assay [19]; 1.51 µM (active) in assay [20]; 1.46 µM (active) in assay [21]; 0.361 µM (active) in [22].

Regarding `COc1ccccc1-c1cc(NCCCN2CCCCC2)c2ccccc2n1`, the results for the IC50 in assay [23] and in assay [24] were 7.13 µM (active) and 2.87 µM (active), respectively.

For the molecule `C[C@H](CO)N1C[C@H](C)[C@@H](CN(C)Cc2ccc(C(F)(F)F)cc2)Oc2ccc(NS(=O)(=O)c3ccccc3)cc2CC1=O`, the AC50 is 54 µM (active) in assay [25]; 53.2 µM (active) in assay [26]; 46.2 µM (active) in [27]; 51.5 µM (active) in assay [28]; 10.1 µM (active) in [29]; > 70 µM (inactive) in assay [30]. In addition, the AC50 was 23 µM (active) in assay [31], > 70 µM (inactive) in [32] and 21 µM (active) in assay [33].

`Cc1ccc(CCn2c3c(c4cc(Cl)ccc42)CN(C)CC3)cn1` [DORASTINE]: the IC50 is > 10 µM (inactive) in assay [34], > 10 µM (inactive) in [35], > 33.3 µM (inactive) in assay [36] and 4.2 µM (active) in assay [37].

For the molecule `O=C(NCCN1CCN(c2ccccc2)CC1)C1CCN(S(=O)(=O)c2cccc3nonc23)CC1`, the IC50 in assay [38] is > 100 µM (active).
